Source: ChEMBL document CHEMBL5500332, “Structure-based approaches for the design of 6-aryl-1-(3,4,5-trimethoxyphenyl)-1H-benzo[d][1,2,3]triazoles as tubulin polymerization inhibitors” (Eur J Med Chem, 2024)
The source made the active and inactive calls. The calls are words filed in the database; no cut-off is given here.

Tests used:
MCF7 [1] = test: Induction of apoptosis in human MCF7 cells assessed as late apoptotic cells at 40 nM incubated for 48 hrs by annexin V-FITC and PI staining based flow cytometry analysis (reference value: 2.22%); type: functional
MCF7 [2] = test: Induction of cell cycle arrest in human MCF7 cells assessed as accumulation of cells at G0/G1 phase at 20 nM incubated for 24 hrs by PI staining based flow cytometry analysis (reference value: 69.67%); type: functional
MCF7 [3] = test: Antiproliferative activity against human MCF7 cells measured after 72 hrs by MTT assay; type: functional, cell-based; conditions: MCF7, 72 h
MCF7 [4] = test: Induction of apoptosis in human MCF7 cells assessed as early apoptotic cells at 60 nM incubated for 48 hrs by annexin V-FITC and PI staining based flow cytometry analysis (reference value: 2.17%); type: functional
MCF7 [5] = test: Induction of apoptosis in human MCF7 cells assessed as necrotic cells at 40 nM incubated for 48 hrs by annexin V-FITC and PI staining based flow cytometry analysis (reference value: 2.25%); type: functional
MCF7 [6] = test: Induction of apoptosis in human MCF7 cells assessed as necrotic cells at 60 nM incubated for 48 hrs by annexin V-FITC and PI staining based flow cytometry analysis (reference value: 2.25%); type: functional
Tubulin (Homo sapiens) [7] = target: T1, Tubulin (Homo sapiens) (UniProt P68371+Q9H4B7+P0DPH7+P68366+Q13509+Q71U36+P04350+Q3ZCM7+P07437+P68363+Q9BQE3+Q6PEY2+Q13885+Q9BVA1+Q9BUF5); test: Disruption of microtubule network in human MCF7 cells incubated for 24 hrs by immunofluorescence staining based confocal microscopic analysis; type: cell-based
Tubulin (Homo sapiens) [8] = target: T1, Tubulin (Homo sapiens); test: Inhibition of tubulin polymerization (unknown origin) measured every 60 secs for 90 mins by microplate reader based analysis; type: protein-complex assay; conditions: dose 1-8 µM
MCF7 [9] = test: Induction of apoptosis in human MCF7 cells assessed as viable cells at 60 nM incubated for 48 hrs by annexin V-FITC and PI staining based flow cytometry analysis (reference value: 92.4%); type: functional; conditions: read-out: Activity
MCF7 [10] = test: Induction of apoptosis in human MCF7 cells assessed as necrotic cells at 20 nM incubated for 48 hrs by annexin V-FITC and PI staining based flow cytometry analysis (reference value: 2.25%); type: functional
MCF7 [11] = test: Induction of cell cycle arrest in human MCF7 cells assessed as accumulation of cells at S phase at 60 nM incubated for 24 hrs by PI staining based flow cytometry analysis (reference value: 14.58%); type: functional
[12] = Toxicity in BALB/c mouse assessed as effect on kidney at 5 to 15 mg/kg, iv measured after 2 weeks by H and E staining based analysis; type: organism-based; conditions: in vivo, 336 h, dose 5-15 mg/kg
MCF7 [13] = test: Induction of cell cycle arrest in human MCF7 cells assessed as accumulation of cells at G0/G1 phase at 40 nM incubated for 24 hrs by PI staining based flow cytometry analysis (reference value: 69.67%); type: functional
MCF7 [14] = test: Induction of apoptosis in human MCF7 cells assessed as early apoptotic cells at 40 nM incubated for 48 hrs by annexin V-FITC and PI staining based flow cytometry analysis (reference value: 2.17%); type: functional
MCF7 [15] = test: Induction of cell cycle arrest in human MCF7 cells assessed as accumulation of cells at G0/G1 phase at 60 nM incubated for 24 hrs by PI staining based flow cytometry analysis (reference value: 69.67%); type: functional
MCF7 [16] = test: Induction of apoptosis in human MCF7 cells incubated for 48 hrs by annexin V-FITC and PI staining based flow cytometry analysis; type: functional, cell-based; conditions: dose 20-60 nM
SGC-7901 = test: Antiproliferative activity against human SGC-7901 cells measured after 72 hrs by MTT assay; type: functional, cell-based; conditions: SGC-7901, 72 h
[17] = Toxicity in BALB/c mouse assessed as effect on heart at 5 to 15 mg/kg, iv measured after 2 weeks by H and E staining based analysis; type: organism-based; conditions: in vivo, 336 h, dose 5-15 mg/kg
4T1 [18] = test: Antiproliferative activity against mouse 4T1 cells measured after 72 hrs by MTT assay; type: functional, cell-based; conditions: 4T1, 72 h
MCF7 [19] = test: Induction of cell cycle arrest in human MCF7 cells assessed as accumulation of cells at G2/M phase at 20 nM incubated for 24 hrs by PI staining based flow cytometry analysis (reference value: 14.36%); type: functional
MCF7 [20] = test: Induction of apoptosis in human MCF7 cells assessed as viable cells at 20 nM incubated for 48 hrs by annexin V-FITC and PI staining based flow cytometry analysis (reference value: 92.4%); type: functional; conditions: read-out: Activity
MCF7 [21] = test: Induction of cell cycle arrest in human MCF7 cells assessed as accumulation of cells at G2/M phase at 60 nM incubated for 24 hrs by PI staining based flow cytometry analysis (reference value: 14.36%); type: functional
MCF7 [22] = test: Induction of cell cycle arrest in human MCF7 cells assessed as accumulation of cells at S phase at 20 nM incubated for 24 hrs by PI staining based flow cytometry analysis (reference value: 14.58%); type: functional
MCF7 [23] = test: Induction of apoptosis in human MCF7 cells assessed as late apoptotic cells at 60 nM incubated for 48 hrs by annexin V-FITC and PI staining based flow cytometry analysis (reference value: 2.22%); type: functional
MCF7 [24] = test: Induction of cell cycle arrest in human MCF7 cells assessed as accumulation of cells at S phase at 40 nM incubated for 24 hrs by PI staining based flow cytometry analysis (reference value: 14.58%); type: functional
MCF7 [25] = test: Inhibition of colony formation in human MCF7 cells measured after 24 hrs by crystal violet staining based analysis; type: functional, cell-based; conditions: dose 20-40 nM
[26] = Toxicity in BALB/c mouse assessed as effect on liver at 5 to 15 mg/kg, iv measured after 2 weeks by H and E staining based analysis; type: organism-based; conditions: in vivo, 336 h, dose 5-15 mg/kg
MCF7 [27] = test: Induction of apoptosis in human MCF7 cells assessed as late apoptotic cells at 20 nM incubated for 48 hrs by annexin V-FITC and PI staining based flow cytometry analysis (reference value: 2.22%); type: functional
MCF7 [28] = test: Induction of cell cycle arrest in human MCF7 cells assessed as accumulation of cells at G2/M phase at 40 nM incubated for 24 hrs by PI staining based flow cytometry analysis (reference value: 14.36%); type: functional
MCF7 [29] = test: Induction of apoptosis in human MCF7 cells assessed as viable cells at 40 nM incubated for 48 hrs by annexin V-FITC and PI staining based flow cytometry analysis (reference value: 92.4%); type: functional; conditions: read-out: Activity
[30] = Toxicity in BALB/c mouse assessed as drug tolerance at 5 to 15 mg/kg, iv measured after 2 weeks; type: organism-based; conditions: in vivo, 336 h, dose 5-15 mg/kg
MCF7 [31] = test: Inhibition of cell migration in human MCF7 cells at 20 to 40 nM incubated for 24 hrs by wound healing assay; type: functional, cell-based; conditions: dose 20-40 nM
MCF7 [32] = test: Induction of cell cycle arrest in human MCF7 cells incubated for 24 hrs by PI staining based flow cytometry analysis; type: functional; conditions: dose 20-60 nM
4T1 [33] = test: Antitumor activity against mouse 4T1 cells xenografted in BALB/c mouse model assessed as tumor growth inhibition rate at 15 mg/kg, iv measured every two days for 2 weeks relative to control; type: functional; conditions: 4T1, 336 h, read-out: TGI
[34] = Toxicity in BALB/c mouse assessed as effect on lung at 5 to 15 mg/kg, iv measured after 2 weeks by H and E staining based analysis; type: organism-based; conditions: in vivo, 336 h, dose 5-15 mg/kg
A549 = test: Antiproliferative activity against human A549 cells measured after 72 hrs by MTT assay; type: functional, cell-based; conditions: A549, 72 h
MCF7 [35] = test: Inhibition of colony formation in human MCF7 cells at 60 nM measured after 24 hrs by crystal violet staining based analysis relative to control; type: functional
[36] = Toxicity in BALB/c mouse assessed as effect on body weight loss at 5 to 15 mg/kg, iv measured after 2 weeks; type: organism-based; conditions: in vivo, 336 h, dose 5-15 mg/kg
[37] = Toxicity in BALB/c mouse assessed as effect on spleen at 5 to 15 mg/kg, iv measured after 2 weeks by H and E staining based analysis; type: organism-based; conditions: in vivo, 336 h, dose 5-15 mg/kg
MCF7 [38] = test: Induction of apoptosis in human MCF7 cells assessed as early apoptotic cells at 20 nM incubated for 48 hrs by annexin V-FITC and PI staining based flow cytometry analysis (reference value: 2.17%); type: functional
4T1 [39] = test: Antitumor activity against mouse 4T1 cells xenografted in BALB/c mouse model assessed as tumor growth inhibition rate at 5 mg/kg, iv measured every two days for 2 weeks relative to control; type: functional; conditions: 4T1, 336 h, read-out: TGI

COc1ccc(-c2ccc3nnn(-c4cc(OC)c(OC)c(OC)c4)c3c2)cc1O
Activity (MCF7 [1]): 10.1% | Activity (MCF7 [2]): 60.54% | IC50 (MCF7 [3]): 20 nM | Activity (MCF7 [4]): 26.4% | Activity (MCF7 [5]): 2.07% | Activity (MCF7 [6]): 2.05% | Activity (Tubulin (Homo sapiens) [7]): Active | inhibition (Tubulin (Homo sapiens) [8]): Dose-Dependent Effect | viability at 0.06 µM (MCF7 [9]): 60.9% | Activity (MCF7 [10]): 2.8% | Activity (MCF7 [11]): 21.52% | Activity [12]: Non-Toxic | Activity (MCF7 [13]): 38.73% | Activity (MCF7 [14]): 24.9% | Activity (MCF7 [15]): 27.42% | Activity (MCF7 [16]): Dose-Dependent Effect | IC50 (SGC-7901): 14 nM | Activity [17]: Non-Toxic | IC50 (4T1 [18]): 32 nM | Activity (MCF7 [19]): 14.84% | viability at 0.02 µM (MCF7 [20]): 83.6% | Activity (MCF7 [21]): 50.23% | Activity (MCF7 [22]): 22.71% | Activity (MCF7 [23]): 10.6% | Activity (MCF7 [24]): 34.21% | inhibition (MCF7 [25]): Dose-Dependent Effect | Activity [26]: Non-Toxic | Activity (MCF7 [27]): 8.16% | Activity (MCF7 [28]): 26.14% | viability at 0.04 µM (MCF7 [29]): 62.9% | Activity [30]: Non-Toxic | inhibition (MCF7 [31]): Active | Activity (MCF7 [32]): Dose-Dependent Effect | inhibition in vivo at 15 mg/kg (4T1 [33]): 68.5% | Activity [34]: Non-Toxic | IC50 (A549): 45 nM | inhibition at 0.06 µM (MCF7 [35]): 100% | Activity [36]: Non-Toxic | Activity [37]: Non-Toxic | Activity (MCF7 [38]): 5.47% | inhibition in vivo at 5 mg/kg (4T1 [39]): 49.5%
